In this assay the target is T1, AR (Homo sapiens, UniProt P10275).
T1 construct: endogenous in cells; host or cells: VCaP cells
T1 sequence (P10275 1-920): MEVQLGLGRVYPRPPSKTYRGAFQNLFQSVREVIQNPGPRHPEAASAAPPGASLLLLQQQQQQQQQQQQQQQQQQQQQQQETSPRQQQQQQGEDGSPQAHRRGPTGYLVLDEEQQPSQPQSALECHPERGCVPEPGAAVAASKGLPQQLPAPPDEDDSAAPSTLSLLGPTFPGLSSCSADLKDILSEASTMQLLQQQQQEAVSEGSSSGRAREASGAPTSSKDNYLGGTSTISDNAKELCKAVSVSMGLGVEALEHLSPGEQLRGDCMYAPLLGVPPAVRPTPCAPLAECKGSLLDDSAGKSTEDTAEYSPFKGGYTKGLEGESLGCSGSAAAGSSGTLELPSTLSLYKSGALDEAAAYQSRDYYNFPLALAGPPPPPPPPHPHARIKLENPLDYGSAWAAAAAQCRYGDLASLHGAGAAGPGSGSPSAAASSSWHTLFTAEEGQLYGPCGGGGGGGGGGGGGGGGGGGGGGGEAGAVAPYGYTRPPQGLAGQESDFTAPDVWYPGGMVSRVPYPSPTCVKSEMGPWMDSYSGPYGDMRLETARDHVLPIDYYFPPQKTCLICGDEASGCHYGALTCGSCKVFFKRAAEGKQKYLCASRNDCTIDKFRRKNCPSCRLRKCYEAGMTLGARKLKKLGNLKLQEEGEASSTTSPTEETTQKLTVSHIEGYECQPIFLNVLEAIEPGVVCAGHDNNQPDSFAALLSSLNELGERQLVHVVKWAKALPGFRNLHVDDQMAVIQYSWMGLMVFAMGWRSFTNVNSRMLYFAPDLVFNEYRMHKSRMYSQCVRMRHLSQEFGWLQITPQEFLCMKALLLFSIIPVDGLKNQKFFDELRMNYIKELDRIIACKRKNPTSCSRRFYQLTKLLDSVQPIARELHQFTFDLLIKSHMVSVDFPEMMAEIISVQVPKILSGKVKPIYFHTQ
Put plainly: VCAP AR Degradation Assay. The format is cell-based. The conditions noted are these: VCaP cells, 24 h, AR ELISA; for DC50: concentration of compound when AR level = 50% of DMSO control (50% AR degradation); for Y: lowest measured AR level normalized to DMSO control (AR degradation efficiency). Here is the method: VCAP AR Degradation Assay. Test compounds were pre-dispensed into a Corning CellBind 96-well clear bottom plate (Cat #3300) using an acoustic dispenser to make a 10-point concentration series at 1:3 dilution for each compound. The final top concentration of each compound was 5 μM. DMSO at a final concentration of 0.1% was used as a control. VCaP cells cultured in DMEM with 8% fetal bovine serum (FBS) were seeded at 50K cells per well in a 200 μL volume into the compound plate and incubated at 37° C. in a CO2 incubator for 24 h. The medium was carefully removed from the cells and the plate was placed on ice. […] ice-cold 1× cell lysis buffer from Cell Signaling Technologies (Cat #9803) was added to each well of the cells and the plate was incubated at 4° C. on a shaker for 1 h. Fifteen μL of cell lysate was used for AR ELISA detection using a PathScan Total Sandwich AR ELISA kit (Cell Signaling Technology, Cat #12580). AR levels in compound-treated wells were normalized to that of DMSO control and expressed as percent of control (PoC) (y). A Four Parameter Logistic Model (Sigmoidal Dose-Response Model) was used to determine the compound's DC50, and EC50, using the following equation: y=(A+((B−A)/(1+((C/x)^D)))) • A=YMin (lowest AR level normalized to DMSO control in response to compound treatment, as determined by curve fit) • B=YMax (maximum AR level as determined by curve fit) • C=EC50 • D=Hill Slope • x=compound concentration • EC50=the concentration of compound when y=[…] • DC50=the concentration of the compound when y=50% of DMSO control (50% AR degradation) • y=AR protein level normalized to DMSO control
The lowest measured AR level normalized to DMSO control in response to compound treatment, termed Y value, was used to characterize the compound-mediated AR degradation efficiency.
On the technique in general: ELISA stands for enzyme-linked immunosorbent assay.

Counter-ions that a name gives are not always drawn.

For orientation: DC50 means the concentration at which degradation of the target reaches its halfway point. A higher DC50 goes with degradation only at high concentration. As for `C[C@@H]1CN(CCC[C@H]2CC[C@H](N3C(=S)N(c4cnc(C#N)c(Cl)c4)C(=O)C3(C)C)CC2)C[C@H](C)N1CC(=O)Nc1cccc2c(N3CCC(=O)NC3=O)nn(C)c12` [Cmpd 12, 2-((2R,6S)-4-(3-(trans-4-(3-(5-Chloro-6-cyanopyridin-3-yl)-5,5-dimethyl-4-oxo-2-thioxoimidazolidin-1-yl)cyclohexyl)propyl)-2,6-dimethylpiperazin-1-yl)-N-(3-(2,4-dioxotetrahydropyrimidin-1(2H)-yl)-1-methyl-1H-indazol-7-yl)acetamide hydrochloride], the DC50 lay within 2 to 10 nM and the Y entry was “** (20%<Y≤%)”.
For `C[C@@H]1CN(CCO[C@H]2CC[C@H](N3C(=S)N(c4ccc(C#N)c(C(F)(F)F)c4)C(=O)C3(C)C)CC2)C[C@H](C)N1CCC(=O)Nc1cccc2c(N3CCC(=O)NC3=O)nn(C)c12` [Cmpd 5, 3-((2R,6S)-4-(2-((trans-4-(3-(4-Cyano-3-(trifluoromethyl)phenyl)-5,5-dimethyl-4-oxo-2-thioxoimidazolidin-1-yl)cyclohexyl)oxy)ethyl)-2,6-dimethylpiperazin-1-yl)-N-(3-(2,4-dioxotetrahydropyrimidin-1(2H)-yl)-1-methyl-1H-indazol-7-yl)propanamide], in that order: 2 to 10 nM and “*** (30%<Y<60%)”.
The corresponding values for `C[C@@H]1C[C@H](CCO[C@H]2CC[C@H](N3C(=S)N(c4cnc(C#N)c(C(F)(F)F)c4)C(=O)C3(C)C)CC2)C[C@H](C)N1CC(=O)Nc1cccc2c(N3CCC(=O)NC3=O)nn(C)c12` [Cmpd 28, 2-((2R,4r,6S)-4-(2-(((trans)-4-(3-(6-Cyano-5-(trifluoromethyl)pyridin-3-yl)-5,5-dimethyl-4-oxo-2-thioxoimidazolidin-1-yl)cyclohexyl)oxy)ethyl)-2,6-dimethylpiperidin-1-yl)-N-(3-(2,4-dioxotetrahydropyrimidin-1(2H)-yl)-1-methyl-1H-indazol-7-yl)acetamide] are at most 2 nM and “* (0<Y≤20%)”.
Turning to `C[C@@H]1CN(CCO[C@H]2CC[C@H](N3C(=S)N(c4cnc(C#N)c(Cl)c4)C(=O)C3(C)C)CC2)C[C@H](C)N1CC(=O)Nc1cccc2c(N3CCC(=O)NC3=O)nn(C)c12` [Cmpd 6, 2-((2R,6S)-4-(2-((trans-4-(3-(5-Chloro-6-cyanopyridin-3-yl)-5,5-dimethyl-4-oxo-2-thioxoimidazolidin-1-yl)cyclohexyl)oxy)ethyl)-2,6-dimethylpiperazin-1-yl)-N-(3-(2,4-dioxotetrahydropyrimidin-1(2H)-yl)-1-methyl-1H-indazol-7-yl)acetamide hydrochloride], the DC50 is at most 2 nM and the Y result is recorded as “* (0<Y≤20%)”.
The corresponding values for `C[C@@H]1CN(CCO[C@H]2CC[C@H](N3C(=S)N(c4ccc(C#N)c(C(F)(F)F)c4)C(=O)C3(C)C)CC2)C[C@H](C)N1CCOc1cccc2c(N3CCC(=O)NC3=O)nn(C)c12` [Cmpd 15, 4-(3-(trans-4-(2-((3R,5S)-4-(2-((3-(2,4-Dioxotetrahydropyrimidin-1(2H)-yl)-1-methyl-1H-indazol-7-yl)oxy)ethyl)-3,5-dimethylpiperazin-1-yl)ethoxy)cyclohexyl)-4,4-dimethyl-5-oxo-2-thioxoimidazolidin-1-yl)-2-(trifluoromethyl)benzonitrile hydrochloride] are 100 to 10000 nM and “** (20%<Y≤%)”.
Consider `C[C@@H]1C[C@@H](CCOC2CCC(N3C(=S)N(c4cnc(C#N)c(C(F)(F)F)c4)C(=O)C3(C)C)CC2)C[C@H](C)N1CC(=O)Nc1cccc2c(N3CCC(=O)NC3=O)nn(C)c12` (stereo partly drawn) [Cmpd 25, 2-((2R,4s,6S)-4-(2-(((trans)-4-(3-(6-Cyano-5-(trifluoromethyl)pyridin-3-yl)-5,5-dimethyl-4-oxo-2-thioxoimidazolidin-1-yl)cyclohexyl)oxy)ethyl)-2,6-dimethylpiperidin-1-yl)-N-(3-(2,4-dioxotetrahydropyrimidin-1(2H)-yl)-1-methyl-1H-indazol-7-yl)acetamide], for which the DC50 is at most 2 nM and the Y entry is on record as “* (0<Y≤20%)”.
The corresponding values for `C[C@@H]1C[C@H](OCCO[C@H]2CC[C@H](N3C(=S)N(c4cnc(C#N)c(C(F)(F)F)c4)C(=O)C3(C)C)CC2)C[C@H](C)N1CC(=O)Nc1cccc2c(N3CCC(=O)NC3=O)nn(C)c12` [Cmpd 34, 2-((2R,4r,6S)-4-(2-(((trans)-4-(3-(6-Cyano-5-(trifluoromethyl)pyridin-3-yl)-5,5-dimethyl-4-oxo-2-thioxoimidazolidin-1-yl)cyclohexyl)oxy)ethoxy)-2,6-dimethylpiperidin-1-yl)-N-(3-(2,4-dioxotetrahydropyrimidin-1(2H)-yl)-1-methyl-1H-indazol-7-yl)acetamide] are at most 2 nM and “** (20%<Y≤%)”.
For `Cn1nc(N2CCC(=O)NC2=O)c2cccc(NC(=O)CN3CCN(CCC[C@H]4CC[C@H](N5C(=S)N(c6cnc(C#N)c(C(F)(F)F)c6)C(=O)C5(C)C)CC4)C[C@@H]3C(F)(F)F)c21` [Cmpd 22, 2-((R)-4-(3-(trans)-4-(3-(6-cyano-5-(trifluoromethyl)pyridin-3-yl)-5,5-dimethyl-4-oxo-2-thioxoimidazolidin-1-yl)cyclohexyl)propyl)-2-(trifluoromethyl)piperazin-1-yl)-N-(3-(2,4-dioxotetrahydropyrimidin-1(2H)-yl)-1-methyl-1H-indazol-7-yl)acetamide hydrochloride], in that order: 2 to 10 nM and “* (0<Y≤20%)”.
The corresponding values for `Cn1nc(N2CCC(=O)NC2=O)c2cccc(NC(=O)CN3CCN(CCO[C@H]4CC[C@H](N5C(=S)N(c6cnc(C#N)c(C(F)(F)F)c6)C(=O)C5(C)C)CC4)C[C@@H]3C(F)(F)F)c21` [Cmpd 27, 2-((R)-4-(2-(((trans)-4-(3-(6-Cyano-5-(trifluoromethyl)pyridin-3-yl)-5,5-dimethyl-4-oxo-2-thioxoimidazolidin-1-yl)cyclohexyl)oxy)ethyl)-2-(trifluoromethyl)piperazin-1-yl)-N-(3-(2,4-dioxotetrahydropyrimidin-1(2H)-yl)-1-methyl-1H-indazol-7-yl)acetamide] are at most 2 nM and “** (20%<Y≤%)”.
For the compound `C[C@@H]1CN(CCCO[C@H]2CC[C@H](N3C(=S)N(c4cnc(C#N)c(C(F)(F)F)c4)C(=O)C3(C)C)CC2)C[C@H](C)N1CC(=O)Nc1cccc2c(N3CCC(=O)NC3=O)nn(C)c12` [Cmpd 7, 2-((2R,6S)-4-(3-((trans-4-(3-(6-Cyano-5-(trifluoromethyl)pyridin-3-yl)-5,5-dimethyl-4-oxo-2-thioxoimidazolidin-1-yl)cyclohexyl)oxy)propyl)-2,6-dimethylpiperazin-1-yl)-N-(3-(2,4-dioxotetrahydropyrimidin-1(2H)-yl)-1-methyl-1H-indazol-7-yl)acetamide hydrochloride], the DC50 is at most 2 nM and the Y entry is listed as “** (20%<Y≤%)”.
On to `C[C@@H]1CN(CCC[C@H]2CC[C@H](N3C(=S)N(c4cnc(C#N)c(C(F)(F)F)c4)C(=O)C3(C)C)CC2)C[C@H](C)N1CC(=O)Nc1cccc2c(N3CCC(=O)NC3=O)nn(C)c12` [Cmpd 10, 2-((2R,6S)-4-(3-(trans-4-(3-(6-Cyano-5-(trifluoromethyl)pyridin-3-yl)-5,5-dimethyl-4-oxo-2-thioxoimidazolidin-1-yl)cyclohexyl)propyl)-2,6-dimethylpiperazin-1-yl)-N-(3-(2,4-dioxotetrahydropyrimidin-1(2H)-yl)-1-methyl-1H-indazol-7-yl)acetamide hydrochloride], for which the DC50 was in the range of 2 to 10 nM and the Y entry is reported as “* (0<Y≤20%)”.
